Measurements: patent US8865913B2, “Crystalline forms and processes for their preparation” (BIAL-Portela & C.A., S.A, priority 2010, dated 2014)

What was measured:
Assay type in all cases: physicochemical
[1] = X-ray powder diffraction (XRPD)
Description: 3. X-ray Powder Diffraction (XRPD)
Selected XRPD patterns were collected with an Inel XRG-3000 diffractometer. An incident beam of Cu Kα radiation was produced using a fine-focus tube and a parabolically graded multilayer mirror. Prior to the analysis, a silicon standard (NIST SRM 640c) was analyzed to verify the Si 111 peak position. A specimen of the sample was packed into a thin-walled glass capillary, and a beam-stop was used to minimize the background from air. Diffraction patterns were collected in transmission geometry using Windif v. 6.6 software and a curved position-sensitive Equinox detector with a […] of 120°.
Selected XRPD patterns were collected using a Bruker D8 DISCOVER diffractometer and Bruker's General Area-Detector Diffraction System (GADDS, v. 4.1.20). An incident microbeam of Cu Kα radiation was produced using a long, fine-focus tube (40 kV, 40 mA), a parabolically graded multilayer mirror, and a 0.5 mm double-pinhole collimator. Prior to the analysis, a silicon standard (NIST SRM 640c) was analyzed to verify the Si 111 peak position. […]
XRPD patterns for microplate samples were collected using a Bruker D8 DISCOVER diffractometer and Bruker's General Area-Detector Diffraction System (GADDS, v. 4.1.20). […] Prior to the analysis, a silicon standard (NIST SRM 640c) was analyzed to verify the Si 111 peak position. […]

[2] = Correlated thermogravimetric-infrared analysis (TG-IR); settings: sample no. 79
Description: 5. Correlated Thermogravimetric—Infrared Analysis (TG-IR)
Thermogravimetric infrared (TG-IR) analysis was performed on a TA Instruments thermogravimetric (TG) analyzer model 2050 interfaced to a Magna-IR 560® Fourier transform infrared (FT-IR) spectrophotometer (Thermo Nicolet) equipped with an Ever-Glo mid/far IR source, a potassium bromide (KBr) beamsplitter, and a mercury cadmium telluride (MCT-A) detector. The FT-IR wavelength verification was performed using polystyrene, and the TG calibration standards were nickel and Alumel™. The sample was placed in a platinum sample pan, and the pan was inserted into the TG furnace. The TG instrument was started first, immediately followed by the FT-IR instrument. The TG instrument was operated under a flow of helium at 90 and 10 cc/min. for the purge and balance, respectively. The furnace was heated under […] at a rate of 20° C./minute to a final temperature of 250° C. IR spectra were collected approximately every 32 seconds for approximately 13 minutes. Each IR spectrum represents 32 co-added scans collected at a spectral resolution of 4 cm^−1. Volatiles were identified from a search of the High Resolution Nicolet Vapor Phase spectral library.

[3] = Thermogravimetric analysis (TGA); settings: sample no. 79
Description: 4. Thermogravimetric Analysis (TGA)
TG analyses were performed using a TA Instruments 2950 and Q5000 thermogravimetric analyzer. Temperature calibration was performed using nickel and Alumel™. Each sample was placed in an aluminum pan and inserted into the TG furnace. The furnace was heated under a nitrogen purge.
The method code for the thermogram (shown by the list of Figures in the “Brief Description of the Figures” section above) is an abbreviation for the start and end temperature as well as the heating rate; e.g., 25-350-10 means “from 25° C. to 350° C., at 10° C./min”.

SMILES: Fc1cc(F)c2c(c1)C[C@@H](n1c(CCNCc3ccccc3)c[nH]c1=S)CO2 [Form B, 1-[(3R)-6,8-difluoro-3,4-dihydro-2H-1-benzopyran-3-yl]-1,3-dihydro-5-[2-[(phenylmethyl)amino]ethyl]-2H-imidazole-2-thione]
- XRPD result ([1]; sample no. 48 (crystallized from tetrahydrofuran/ethyl acetate)): Crystalline consistent with Form B of compound 2
- XRPD result ([1]; sample no. 79 (organic vapor stress of amorphous material in ethyl acetate)): Crystalline consistent with Form B of compound 2
- TG-IR (IR) identification of volatile [2]: (IR): Consistent with loss of ethyl acetate.
- TGA sharp weight loss (onset) [3]: Sharp weight loss at ~254 °C (onset)
- TGA weight loss ([3]; between ~138° C. and ~190° C.): ~4.7 wt % loss between ~138 °C and ~190 °C
